In US7923452B2, “Fungicidal mixtures comprising boscalid and pyrimethanil” (BASF SE, priority 2005, dated 2011) one finds inhibition data, which are given here for two molecules.

The assay has as its system Puccinia recondita. Put plainly: Protective activity against Puccinia recondita on wheat (brown rust of wheat) (Puccrt P1). It is filed as in vivo, Puccinia recondita on wheat seedlings cultivar "Kanzler". To be noted: single active compound, protective spray 1 day before inoculation, efficacy in % of untreated control (Abbot), read-out: Observed activity (%). The procedure:
The active compounds, separately or jointly, were prepared as a stock solution comprising 25 mg of active compound which was made up to 10 ml using a mixture of acetone and/or dimethyl sulfoxide and the emulsifier Uniperol® EL (wetting agent having an emulsifying and dispersing action based on ethoxylated alkylphenols) in a ratio by volume of solvent/emulsifier of 99:1. The mixture was then made up to 100 ml with water. This stock solution was diluted with the solvent/emulsifier/water mixture described to give the concentration of active compound stated below.
The visually determined percentages of infected leaf areas were converted into efficacies in % of the untreated control:
The efficacy (E) is calculated as follows using Abbot's formula. W=(1−α/β)·100 α corresponds to the fungicidal infection of the treated plants in % and β corresponds to the fungicidal infection of the untreated (control) plants in %
At an efficacy of 0, the infection level of the treated plants corresponds to that of the untreated control plants; at an efficacy of 100, the treated plants are not infected.
The expected efficacies of active compound mixtures were determined using Colby's formula (S. R. Colby, “Calculating synergistic and antagonistic responses of herbicide combinations”, Weeds 15, 20-22 (1967)) and compared with the observed efficacies.
Colby's formula: E=x+y−x−y/100 • E expected efficacy, expressed in % of the untreated control, when using the mixture of the active compounds A and B at the concentrations a and b; • x efficacy, expressed in % of the untreated control, when using the active compound A at the concentration a; • y efficacy, expressed in % of the untreated control, when using the active compound B at the concentration b;
Leaves of potted wheat seedlings of the cultivar “Kanzler” were sprayed to runoff point with an aqueous suspension having the concentration of active compound stated below. […] The extent of the rust fungus development on the leaves was then determined visually.

Regarding `O=C(Nc1ccccc1-c1ccc(Cl)cc1)c1cccnc1Cl` [Boscalid, boscalid], the inhibition at 8 ppm (8 ppm) was 22%. With `Cc1cc(C)nc(Nc2ccccc2)n1` [Pyrimethanil, pyrimethanil], where the note is “2 ppm”, the inhibition at 2 ppm was determined as 0%. Further, for the setting “4 ppm”, the inhibition at 4 ppm worked out at 0%.
